These results are taken from patent US8012956B2, “Tropane compounds” (Exelixis, Inc., priority 2007, dated 2011).

Bounds are passed on as bounds.

The test has as its target HSP90 (Homo sapiens, UniProt P07900). Kind of test: HSP90 inhibition (HSP90 IC50). It is filed as biochemical.
As usually defined, the IC50 is the concentration needed to halve the response being measured. Low values mean greater potency, high ones weaker potency. For `COc1cccc(C(=O)NC2CC3CCC(C2)N3c2ccc(C(=O)NCC3CCNC3)cn2)c1C` (centres unmarked), the IC50 is less than 500 nM.
Next, `COc1cccc(C(=O)N[C@H]2C[C@H]3CC[C@@H](C2)N3c2ccc(C(=O)NCc3ccc(N4CCN(C)CC4)cc3)cn2)c1C`: less than 500 nM.
Then `COc1ccc([C@H](C)NC(=O)c2ccc(N3C4CCC3CC(NC(=O)c3cccc(OC)c3C)C4)nc2)cc1` (some centres unmarked), with less than 500 nM; and `COc1cccc(C(=O)NC2CC3CCC(C2)N3c2ccc(C(=O)NC(C)c3ccccc3)cn2)c1C` (centres unmarked), with less than 500 nM.
For the compound `COc1ccc(Nc2cc(C(=O)N[C@H]3C[C@H]4CC[C@@H](C3)N4c3ccc(C(=O)NC4CCCC4)cn3)ccc2C(N)=O)cc1OCCN(C)C`, the IC50 was less than 500 nM.
As to `C[C@H](NC(=O)c1ccc(N2C3CCC2CC(NC(=O)c2ccc(C(N)=O)c(Nc4ccncc4)c2)C3)nc1)c1ccc(N2CCN(C)CC2)cc1` (some centres unmarked), the IC50 was less than 500 nM.
Then `COC(=O)[C@@H](NC(=O)c1ccc(N2C3CCC2CC(NC(=O)c2cccc(OC)c2C)C3)nc1)c1ccc(OC)cc1` (some centres unmarked), with 1000 to 2000 nM.
Then `CC(C)C(=O)c1ccc(N2[C@@H]3CC[C@H]2C[C@@H](NC(=O)c2ccc(C(N)=O)c(NCC4CC4)c2)C3)nc1`, with 1000 to 2000 nM; and `CCC(CC)Nc1cc(C(=O)N[C@H]2C[C@H]3CC[C@@H](C2)N3c2ccc(C(C)=O)cn2)c(C)cc1C(N)=O`, with less than 500 nM.
Next, `NC(=O)c1ccc(C(=O)N[C@H]2C[C@H]3CC[C@@H](C2)N3c2ccc(C(=O)C3CC3)cn2)cc1NC1CCCC1`: less than 500 nM; `CCC(C)Oc1cc(C(=O)N[C@H]2C[C@H]3CC[C@@H](C2)N3c2ccc(C(=O)C3CC3)cn2)c(C)cc1C(N)=O` (some centres unmarked): less than 500 nM.
Compound “2-((cyclopropylmethyl)amino]-N4-{8- [5-({[(3R)-1-(1-methylethyl)pyrrolidin- 3-yl]amino}carbonyl)pyridin-2-yl]-8- azabicyclo[3.2.1]oct-3-endo- yl}benzene-1,4-dicarboxamide” had a half-inhibitory concentration (IC50) of less than 500 nM.
Then `NC(=O)c1cc(Cl)c(C(=O)N[C@H]2C[C@H]3CC[C@@H](C2)N3c2ccc(C(=O)NCc3ccccc3)cn2)cc1Cl` [2,5-dichloro-N-[8-(5-{[(phenylmethyl)amino]carbonyl}pyridin-2-yl)-8-azabicyclo[3.2.1]oct-3-endo-yl]benzene-1,4-dicarboxamide], with less than 500 nM.
`Cc1cc(C(=O)NC2CC3CCC(C2)N3c2ccc(C(=O)N[C@@H](C)c3ccc(N4CCN(C)CC4)cc3)cn2)c(C)cc1C(N)=O` (stereo partly drawn) [2,5-dimethyl-N-(8-{5-[({(1S)-1-[4-(4-methylpiperazin-1-yl)phenyl]ethyl}amino)carbonyl]pyridin-2-yl}-8-azabicyclo[3.2.1]oct-3-endo-yl)benzene-1,4-dicarboxamide]: the IC50 is less than 500 nM.
On to `Cc1cc(C(=O)N[C@H]2C[C@H]3CC[C@@H](C2)N3c2ccc(C(=O)NC3CN(C)C3)cn2)c(C)cc1C(N)=O` [2,5-dimethyl-N-[8-(5-{[(1-methylazetidin-3-yl)amino]carbonyl}pyridin-2-yl)-8-azabicyclo[3.2.1]oct-3-endo-yl]benzene-1,4-dicarboxamide], for which the IC50 is less than 500 nM.
Then `Cc1cc(C(=O)N[C@H]2C[C@H]3CC[C@@H](C2)N3c2ccc(C(=O)NC3CCN(C)CC3)cn2)c(C)cc1C(N)=O` [2,5-dimethyl-N-[8-(5-{[(1-methylpiperidin-4-yl)amino]carbonyl}pyridin-2-yl)-8-azabicyclo[3.2.1]oct-3-endo-yl]benzene-1,4-dicarboxamide], with 500 to 999 nM; and `Cc1cc(C(=O)N[C@H]2C[C@H]3CC[C@@H](C2)N3c2ccc(C(=O)NCc3ccccc3)cn2)c(C)cc1C(N)=O` [2,5-dimethyl-N-[8-(5-{[(phenylmethyl)amino]carbonyl}pyridin-2-yl)-8-azabicyclo[3.2.1]oct-3-endo-yl]benzene-1,4-dicarboxamide], with less than 500 nM.
